Results on two compounds are retold here after article PMC9504419, “Multipotent Cholinesterase Inhibitors for the Treatment of Alzheimer’s Disease: Synthesis, Biological Analysis and Molecular Docking Study of Benzimidazole-Based Thiazole Derivatives” (Molecules, 2022).

The test system of one experiment is brain AChE. Particulars: similar degree of brain AChE inhibition; cited from earlier work.
Another experiment has as its target AChE (Homo sapiens, UniProt P22303). The experiment in a line: biochemical. Format: biochemical. As to the method:
(§1) The inhibition of AChE and BChE was determined using a method described earlier. Briefly, the stock solutions (1 mg/mL) of test analogues were prepared using DMSO. The working solutions (1–100 μg/mL) were prepared using serial dilutions (a serial dilution means a series of diluted solutions, e.g., 0.1 mg/mL, 0.2 mg/mL and so on; the solutions contained 5% DMSO and 95% water). The various concentrations of test compounds (10 μL) were pre-incubated with sodium phosphate buffer (0.1 M; pH 8.0; 150 μL) and AChE (0.1 U/mL; 20 μL) for 15 min at 25 °C. The reaction was initiated via the addition of DTNB (1 mM; 10 μL) and […] (1 mM; 10 μL). The mixture of reaction was mixed using a cyclomixer and incubated for 10 min at 25 °C. The absorbance was measured using a microplate reader at a 410 nm wavelength against the blank reading containing 10μL DMSO instead of the test compound (the solution contained 5% DMSO and 95% water).
(§2) % Inhibition = (Absorbance of control—Absorbance of compound)/Absorbance of control × 100

The target of the next experiment is BuChE (Homo sapiens, UniProt P06276). The experiment is described as follows: biochemical. Particulars: read-out: IC50BuChE. It counts as biochemical. Here is the method:
as §1, §2

AChE, sequence (P22303 32-614): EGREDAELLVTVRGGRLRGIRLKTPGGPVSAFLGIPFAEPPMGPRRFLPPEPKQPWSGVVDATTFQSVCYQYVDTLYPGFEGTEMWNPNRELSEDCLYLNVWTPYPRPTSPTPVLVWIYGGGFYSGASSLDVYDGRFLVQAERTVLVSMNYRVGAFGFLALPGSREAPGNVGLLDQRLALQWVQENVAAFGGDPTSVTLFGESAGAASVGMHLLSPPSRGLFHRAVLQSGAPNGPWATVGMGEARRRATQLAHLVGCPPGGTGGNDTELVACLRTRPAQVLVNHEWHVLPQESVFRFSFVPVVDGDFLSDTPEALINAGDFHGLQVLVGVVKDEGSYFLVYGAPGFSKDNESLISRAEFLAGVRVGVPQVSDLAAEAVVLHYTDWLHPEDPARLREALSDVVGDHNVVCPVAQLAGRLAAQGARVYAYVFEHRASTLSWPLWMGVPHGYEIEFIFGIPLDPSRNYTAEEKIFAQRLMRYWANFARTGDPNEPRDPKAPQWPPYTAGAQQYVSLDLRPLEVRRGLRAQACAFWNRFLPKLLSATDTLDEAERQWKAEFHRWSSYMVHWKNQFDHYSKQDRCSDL
BuChE, sequence (P06276 29-602): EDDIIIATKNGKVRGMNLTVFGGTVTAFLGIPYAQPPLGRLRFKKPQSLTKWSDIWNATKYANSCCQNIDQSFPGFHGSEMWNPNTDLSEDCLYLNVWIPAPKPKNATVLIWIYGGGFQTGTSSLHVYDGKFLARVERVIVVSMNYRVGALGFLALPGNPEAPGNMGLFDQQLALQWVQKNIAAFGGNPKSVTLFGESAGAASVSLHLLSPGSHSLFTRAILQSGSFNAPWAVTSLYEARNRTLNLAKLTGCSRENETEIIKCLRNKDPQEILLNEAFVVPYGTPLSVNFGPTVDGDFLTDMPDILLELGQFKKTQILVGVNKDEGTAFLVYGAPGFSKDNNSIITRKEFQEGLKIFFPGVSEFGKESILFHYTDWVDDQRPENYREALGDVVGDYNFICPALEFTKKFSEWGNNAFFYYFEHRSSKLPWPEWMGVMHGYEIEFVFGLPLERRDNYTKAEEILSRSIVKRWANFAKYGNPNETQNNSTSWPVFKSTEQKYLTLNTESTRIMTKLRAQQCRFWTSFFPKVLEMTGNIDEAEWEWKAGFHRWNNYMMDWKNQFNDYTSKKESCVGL

For the compound `COc1ccc2c3c1O[C@H]1C[C@@H](O)C=C[C@@]31CCN(C)C2` [Galantamine], the “doses needed, times greater than those of Donepezil” value in the experiment with brain AChE was 3–15 times.

As for `Clc1ccc(/C(CSc2nc3ccccc3[nH]2)=N\Nc2nc(-c3ccc(Br)cc3)cs2)cc1Cl` [compound 23, (E)-2-(2-(2-((1H-benzo[d]imidazol-2-yl)thio)-1-(3,4-dichlorophenyl)ethylidene) hydrazinyl)-4-(4-bromophenyl)thiazole], the “Selectivity Index” value at AChE (AChE and BuChE IC50 values) is 1.43. Further, the IC50 was found to be 4.7 ± 0.1 µM at AChE (read-out: IC50AChE) and 6.7 ± 0.1 µM on BuChE.
